Data published in patent publication US20080261994A1, “CYCLOPROPANE COMPOUNDS AND PHARMACEUTICAL USE THEREOF” (Japan Tobacco Inc., priority 2003, published 2008).
Where two headings read alike, the source gives them in different places.

Tests used:
Format in all cases: biochemical
[1] = target: T1, MMP-1 (Homo sapiens, UniProt P03956); experiment: MMP-1 inhibitory action (Type I collagen Activity Measurement kit, FITC-labeled collagen type I)
T1 sequence (P03956 100-469): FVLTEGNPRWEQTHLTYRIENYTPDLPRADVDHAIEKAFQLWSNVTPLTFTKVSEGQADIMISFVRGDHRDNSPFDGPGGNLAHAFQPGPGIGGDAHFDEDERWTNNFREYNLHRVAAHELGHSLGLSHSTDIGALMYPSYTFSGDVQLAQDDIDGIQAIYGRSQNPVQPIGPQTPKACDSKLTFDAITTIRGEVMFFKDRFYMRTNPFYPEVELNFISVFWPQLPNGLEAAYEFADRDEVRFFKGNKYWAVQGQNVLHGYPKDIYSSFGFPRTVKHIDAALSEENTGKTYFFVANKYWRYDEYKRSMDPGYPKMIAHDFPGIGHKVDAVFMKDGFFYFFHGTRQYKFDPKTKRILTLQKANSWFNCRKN

[2] = target: T2, Recombinant Human MMP-13 (Homo sapiens, UniProt P45452); experiment: MMP-13 inhibitory activity (MMP-13 specific fluorescent substrate with quencher)
T2 construct: purchased R&D systems 511-MM
Protocol: Inhibitory activity of tested compounds on MMP-13 was measured using MMP-13 specific fluorescent substrate with quencher.
The enzyme and substrate were diluted with Tris-HCl buffer, and test compounds were diluted with dimethyl sulfoxide (DMSO).
Test compounds and the enzyme (Recombinant Human MMP-13: R&D systems, 511-MM) were added into 96-well plate. The reaction was initiated by adding synthetic substrate (7-MCA-Pro-CHA-Gly-NVal-His-Ala-DPA: enzyme systems products, Met-06) into the plate. After incubation at 25° C. for 1 h, the reaction was terminated by addition of reaction terminating solution containing acetic acid. Fluorescence intensity of each well was measured (Ex: 325 nm, […] 405 nm) and the MMP-13 inhibitory activity of the compound in each well (%) was calculated based on the values of enzyme-free well and inhibitor-free well. The inhibitory activity of the compound was represented as IC50 (μM).

[3] = target: T3, aggrecanase-1 (Homo sapiens, UniProt O75173); experiment: Aggrecanase-1 inhibitory action (Particle Assay, GAG release from aggrecan-containing polyacrylamide particles)
T3 sequence (O75173 213-837): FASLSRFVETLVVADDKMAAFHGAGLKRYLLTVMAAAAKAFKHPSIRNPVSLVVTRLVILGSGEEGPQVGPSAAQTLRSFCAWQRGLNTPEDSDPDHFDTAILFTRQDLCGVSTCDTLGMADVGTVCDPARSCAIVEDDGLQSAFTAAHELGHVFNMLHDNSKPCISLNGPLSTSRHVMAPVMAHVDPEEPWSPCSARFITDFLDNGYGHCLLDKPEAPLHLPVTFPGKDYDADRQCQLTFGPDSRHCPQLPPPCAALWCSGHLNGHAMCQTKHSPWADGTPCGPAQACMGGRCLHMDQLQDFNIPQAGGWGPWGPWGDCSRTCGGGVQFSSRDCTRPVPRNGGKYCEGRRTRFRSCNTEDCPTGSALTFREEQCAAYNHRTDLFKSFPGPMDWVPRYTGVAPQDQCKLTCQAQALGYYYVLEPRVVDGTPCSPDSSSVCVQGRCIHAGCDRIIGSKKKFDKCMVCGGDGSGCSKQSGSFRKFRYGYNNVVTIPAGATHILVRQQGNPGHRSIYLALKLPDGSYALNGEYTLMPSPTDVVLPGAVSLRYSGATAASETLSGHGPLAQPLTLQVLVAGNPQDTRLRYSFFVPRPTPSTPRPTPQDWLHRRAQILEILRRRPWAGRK
In short: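 Readout was dimethylmethylene blue absorbance (595 nm) of glycosaminoglycan liberated into supernatant, calibrated with whale chondroitin sulfate. Substrate was aggrecan in polyacrylamide particles, digested 15 h at 37° C in Tris-HCl; TC50 (μM) derived from inhibition relative to no-enzyme and no-inhibitor controls.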

[4] = Experimental Example 2, read-out: IC50 MMP1
[5] = Experimental Example 3, read-out: IC50 MMP13
[6] = Experimental Example 1, read-out: IC50 AG1
[7] = MMP-1 inhibitory action, FITC-labeled collagen type I, 37° C. for 3 hr, read-out: IC50 MMP1 (Experimental Example 2)
[8] = Recombinant Human MMP-13, fluorescent substrate, 25° C. for 1 h, read-out: IC50 MMP13 (Experimental Example 3)
[9] = aggrecanase-1 inhibitory action, read-out: IC50 AG1 (Experimental Example 1)

For `CC1[C@H](c2ccccc2)[C@]1(NS(=O)(=O)N1CCN(c2ccc(Cl)cc2)CC1)C(=O)O` (stereo partly drawn) [Example 2-426], the IC50 [1, 4] was at least 1 µM, the IC50 [2, 5] was under 0.1 µM and the IC50 [3, 6] was under 1 µM.
`O=C(O)C1(NS(=O)(=O)N2CCN(c3ccc(F)cc3)CC2)CC1c1ccccc1` (stereo not drawn) [Example 2-67] showed an IC50 [1, 7] of at least 10 µM, an IC50 [2, 8] of under 1 µM and an IC50 [3, 9] of at least 10 µM.
With `O=C(O)Cc1cccc(C2CC2(NS(=O)(=O)c2ccc(-c3ccc(Cl)cc3)s2)C(=O)O)c1` (stereo not drawn) [Example 2-181] the IC50 [1, 7] was at least 1 µM, the IC50 [2, 8] was under 0.1 µM and the IC50 [3, 9] was under 0.1 µM.
`NC(=O)OCC1(c2ccccc2)CC1(NS(=O)(=O)c1ccc(-c2cc(C(F)(F)F)on2)s1)C(=O)O` (stereo not drawn) [Example 2-335] was tested, and the IC50 [1, 4] was at least 1 µM, the IC50 [2, 5] was under 1 µM and the IC50 [3, 6] was under 1 µM.
In the case of `C[C@]1(c2ccccc2)C[C@@]1(NS(=O)(=O)c1cn2cc(-c3ccccc3)nc2s1)C(=O)O` [Example 2-518], the IC50 [1, 4] is reported as under 1 µM, the IC50 [2, 5] is reported as under 0.1 µM and the IC50 [3, 6] is reported as under 1 µM.
`CC1(C)COC(c2ccc(S(=O)(=O)N[C@@]3(C(=O)O)C[C@@H]3c3ccccc3)s2)=N1` [Example 2-54] showed an IC50 [1, 7] of at least 10 µM, an IC50 [2, 8] of at least 10 µM and an IC50 [3, 9] of at least 1 µM.
`CC1[C@H](c2ccccc2)[C@]1(NS(=O)(=O)c1ccc(-n2cc(Cl)cn2)nc1)C(=O)O` (stereo partly drawn) [Example 2-557] showed an IC50 [1, 4] of at least 1 µM, an IC50 [2, 5] of under 0.1 µM and an IC50 [3, 6] of under 1 µM.
Work on `O=C(O)C1(NS(=O)(=O)c2ccc(-c3cc(C(F)(F)F)on3)s2)CC1c1cccc(CCCO)c1` (stereo not drawn) [Example 2-236] yielded an IC50 [1, 7] of at least 1 µM, an IC50 [2, 8] of under 0.1 µM and an IC50 [3, 9] of under 1 µM.
With `C[C@]1(c2ccccc2)C[C@@]1(NS(=O)(=O)c1ccc(-c2ccc(F)c(F)c2)s1)C(=O)O` [Example 2-581] the IC50 [1, 4] was at least 1 µM, the IC50 [2, 5] was under 1 µM and the IC50 [3, 6] was under 0.1 µM.
`O=C(c1ccc(Cl)cc1)N1CCN(S(=O)(=O)NC2(C(=O)O)CC2c2ccccc2)CC1` (stereo not drawn) [Example 2-159] gave an IC50 [1, 7] of at least 10 µM, an IC50 [2, 8] of at least 10 µM and an IC50 [3, 9] of at least 10 µM.
`O=C(NCCO)c1ccccc1C1CC1(NS(=O)(=O)c1ccc(-c2ccc(Cl)cc2)s1)C(=O)O` (stereo not drawn) [Example 2-72] gave an IC50 [1, 7] of at least 10 µM, an IC50 [2, 8] of under 1 µM and an IC50 [3, 9] of under 0.1 µM.
Compound `CC(C)c1cc(-c2ccc(S(=O)(=O)N[C@@]3(C(=O)O)C(C)[C@@H]3c3ccccc3)s2)no1` (stereo partly drawn) [Example 2-408] has an IC50 [1, 4] of under 1 µM, an IC50 [2, 5] of under 0.1 µM and an IC50 [3, 6] of under 0.1 µM.
`CCC(=O)c1ccc(S(=O)(=O)NC2(C(=O)O)CC2c2ccccc2)s1` (stereo not drawn) [Example 2-116] showed an IC50 [1, 7] of at least 10 µM, an IC50 [2, 8] of at least 10 µM and an IC50 [3, 9] of at least 10 µM.
Compound `CC(=O)OCCCC1(c2ccccc2)CC1(NS(=O)(=O)c1ccc(-c2cc(C(F)(F)F)on2)s1)C(=O)O` (stereo not drawn) [Example 2-264] has an IC50 [1, 7] of at least 1 µM, an IC50 [2, 8] of under 0.1 µM and an IC50 [3, 9] of under 0.1 µM.
Compound `CN(C)c1cccc(C2CC2(NS(=O)(=O)c2ccc(-c3cc(C(F)(F)F)on3)s2)C(=O)O)c1` (stereo not drawn) [Example 2-228] has an IC50 [1, 7] of at least 1 µM, an IC50 [2, 8] of under 1 µM and an IC50 [3, 9] of under 1 µM.
`COCCN(C)C(=O)c1cccc(C2CC2(NS(=O)(=O)c2ccc(-c3ccc(Cl)cc3)s2)C(=O)O)c1` (stereo not drawn) [Example 2-69] gave an IC50 [1, 7] of at least 1 µM, an IC50 [2, 8] of under 0.1 µM and an IC50 [3, 9] of under 0.1 µM.
Compound `Cc1ncc(-c2ccc(S(=O)(=O)NC3(C(=O)O)CC3c3ccccc3)s2)o1` (stereo not drawn) [Example 2-79] has an IC50 [1, 7] of at least 10 µM, an IC50 [2, 8] of at least 10 µM and an IC50 [3, 9] of at least 10 µM.
For `O=C(NC1CC1)OCC1(c2ccccc2)CC1(NS(=O)(=O)c1ccc(-c2cc(C(F)(F)F)on2)s1)C(=O)O` (stereo not drawn) [Example 2-331], the IC50 [1, 4] was at least 1 µM, the IC50 [2, 5] was under 1 µM and the IC50 [3, 6] was under 1 µM.
`CC1[C@H](c2ccccc2)[C@]1(NS(=O)(=O)c1ccc(-c2ccc3nonc3c2)s1)C(=O)O` (stereo partly drawn) [Example 2-517] gave an IC50 [1, 4] of at least 1 µM, an IC50 [2, 5] of under 1 µM and an IC50 [3, 6] of under 0.1 µM.
